{"source": "patent US6372493B1", "about": "“Hormone-secreting cells maintained in long-term culture” (Pacific Biomedical Research, Inc. [Cell Mart, Inc.], priority 1991, dated 2002)", "key": {"[1]": {"tested_on": "Human pancreas cells at passage generation 47", "test": "Effect of amino acids on glucose stimulated insulin secretion (Example 20)", "type": "cell-based", "settings": "for insulin secretion, +10 mM alanine / insulin secretion, +20 mM arginine: 90 minutes", "experimental": "Human pancreas cells at passage generation 47, were prepared for the experiment as described in Example 17 above. The cells were incubated in 6 parts PDM plus 1 part DMSS medium at a concentration of 10^5 cells/ml, at various concentrations of glucose. Alanine (10 mM) or arginine(20 mM) were added, and the cells were incubated for 90 minutes, at which time samples were collected for assay of insulin content."}, "human follicular cells": {"tested_on": "human follicular cells", "test": "Long-term hormone secretion of follicular sub-cultures with added testosterone substrate (Example 2)", "type": "cell-based", "parameters": "dose or concentration left out as unconfirmed", "settings": "testosterone added as substrate for steroid production", "experimental": "(§1) Cells in SC-2 were propagated and sub-cultured as above more than 20 times. […] Quantitative radioimmune assays (RIA) were employed as described in Radioassay Systems in Clinical Endocrinology, 1981, Ed. G. E. Abraham, {Basel: Marcel Dekker}, pp. 475-529. Progesterone, testosterone, estradiol, prolactin, thyroid stimulating hormone and luteinizing hormone were assayed by the Coat-a-Count procedure (Diagnostic Products Corp., Los Angeles). Follicle-stimulating hormone and B-hCG were assayed by the SERONO MATAclone procedure (Serono, Italy).\nConclusions: Using this method, human follicular cells were propagated in culture and transferred to serial subcultures which continued to proliferate and to secrete hormones."}, "[2]": {"tested_on": "Ovarian follicular cells, lines 100B-OR-5A, 100B5-OR-B, 100B5-OR-D", "test": "8-Br-cAMP / FSH stimulation of progesterone secretion by cultured follicular cells", "type": "cell-based, human", "settings": "1 mM 8-Br-cAMP, 24 hours", "experimental": "as §1, with “Angeles).” for “Angeles). Follicle-stimulating hormone and B-hCG were assayed by the SERONO MATAclone procedure (Serono, Italy).”\nOvarian follicular cells, lines 100B-OR-5A, 100B5-OR-B, and 100B5-OR-D, were established in culture as described in Example 1 and maintained and sub-cultured as described in Example 2. From these lines were created sub-cultures designated 1, 2, and 3 respectively, which were employed in the stimulation protocol described below."}}}
{"compound": "C[C@H](N)C(=O)O", "note": "[alanine, Alanine]", "values": [{"measurement": "increase of insulin secretion over that stimulated by glucose alone", "setting": "[1]; 10 mM alanine at 2 mM glucose", "value": 1.25, "unit": "fold"}, {"measurement": "insulin secretion stimulated over the intermediate level of secretion", "setting": "[1]; 10 mM alanine together with 1 mM glucose, 1.5 hours", "value": "approximately 1.13 fold"}, {"measurement": "insulin secretion, +10 mM alanine", "setting": "[1]; total 1 mM glucose", "value": 103}, {"measurement": "insulin secretion, +10 mM alanine", "setting": "[1]; total 2 mM glucose", "value": 135}, {"measurement": "insulin secretion, +10 mM alanine", "setting": "[1]; total 6 mM glucose", "value": 127}, {"measurement": "insulin secretion, +10 mM alanine", "setting": "[1]; total 11 mM glucose", "value": 117}, {"measurement": "insulin secretion, +10 mM alanine", "setting": "[1]; total 16 mM glucose", "value": 101}, {"measurement": "insulin secretion, +10 mM alanine", "setting": "[1]; total 22 mM glucose", "value": 87}]}
{"compound": "C[C@]12CC[C@H]3[C@@H](CCC4=CC(=O)CC[C@@]43C)[C@@H]1CC[C@@H]2O", "note": "[testosterone]", "values": [{"measurement": "time subcultures continued to secrete hormones after first placed in culture", "setting": "human follicular cells", "value": "≤ 16", "unit": "months"}]}
{"compound": "N=C(N)NCCC[C@H](N)C(=O)O", "note": "[arginine]", "values": [{"measurement": "insulin secretion, +20 mM arginine", "setting": "[1]; total 1 mM glucose", "value": 128}, {"measurement": "insulin secretion, +20 mM arginine", "setting": "[1]; total 2 mM glucose", "value": 134}, {"measurement": "insulin secretion, +20 mM arginine", "setting": "[1]; total 6 mM glucose", "value": 105}, {"measurement": "insulin secretion, +20 mM arginine", "setting": "[1]; total 11 mM glucose", "value": 93}, {"measurement": "insulin secretion, +20 mM arginine", "setting": "[1]; total 16 mM glucose", "value": 99}, {"measurement": "insulin secretion, +20 mM arginine", "setting": "[1]; total 22 mM glucose", "value": 94}]}
{"compound": "Nc1ncnc2c1nc(Br)n2[C@@H]1O[C@@H]2COP(=O)(O)O[C@H]2[C@H]1O", "note": "[8-Br-cAMP]", "values": [{"measurement": "Prog", "setting": "[2]; culture 1", "value": 24.5, "unit": "ng/10^6 cells"}, {"measurement": "Prog", "setting": "[2]; culture 2", "value": 12.9, "unit": "ng/10^6 cells"}, {"measurement": "Prog", "setting": "[2]; culture 3", "value": 20.8, "unit": "ng/10^6 cells"}]}
